The subject of data set [1] is C. elegans expressing GFP-TDP-43(CTF) (C-terminal fragment of human TDP-43, aas 208-414) in the body wall muscle. The data set is described as follows: C. elegans lifespan assay, strain expressing TDP-43 C-terminal fragment. It counts as in vivo. Particulars: 10 μg/ml in the NGM agar, vs DMSO vehicle, p<0.005. The source says: C-terminal fragments of TDP-43 are associated with pathology in ALS and FTD patients. In particular, proteolytic cleavage at Arg208 has been reported to generate a pathogenic C-terminal fragment (see Wang et al., 2013, J. Biol. Chem. 288(13):9049-57 and Igaz et al., 2009, J. Biol. Chem. 284(13):8516-24; the disclosures of which are incorporated herein by reference). Therefore, a transgenic C. elegans strain was generated that expresses the C-terminal fragment (CTF) of human TDP-43 (aas 208-414) in the body wall muscle, fused via a short linker region to the C-terminus of a GFP tag. Expression is under the control of the myo-3 promoter. […]
C. elegans cultures were synchronised by incubating an asynchronous culture in basic sodium hypochlorite solution to kill everything but the bleach-resistant mature eggs. […] From this point on, each ageing population was inspected daily and viability assessed by counting the number of dead worms.
(§1) The cumulative number of dead worms for each population was used to generate a survival/viability plot to determine chronological lifespan (CLS). Survival was analysed using the Kaplan-Meier log-rank survival analysis method, using the Online Application for Survival (OASIS; see http://sbi.postech.ac.kr/oasis). […]

In data set [2] the test system is control (GFP-expressing) C. elegans. The data set is described as follows: C. elegans lifespan assay, control strain expressing GFP only. The format is in vivo. Particulars: 10 μg/ml in the NGM agar, vs DMSO vehicle, p<0.01. The protocol:
A control C. elegans strain was generated in the same background, in which the GFP reporter only is expressed under the control of the myo-3 promoter.
These strains were crossed with worms carrying a mutation in the bus-5 gene, which confers drug-sensitivity, to produce drug-sensitive strains expressing GFP alone (“GFP”) or expressing the GFP-TDP-43 CTF fusion protein (“GFP-TDP-43(CTF)”).
C. elegans cultures were synchronised by incubating an asynchronous culture in basic sodium hypochlorite solution to kill everything but the bleach-resistant mature eggs. Approximately 300 eggs were added on to agar plates and then allowed to hatch and develop (to produce approximately 200 worms) in the presence of the test compound (or vehicle) and bacterial food source. […] From this point on, each ageing population was inspected daily and viability assessed by counting the number of dead worms.
as §1

In another data set the test system is TDP-43(Q331K) mice. The data set is described as follows: Rotarod testing of TDP-43(Q331K) transgenic mice. The format is in vivo, mouse. In general terms: Falling from the rotarod earlier than controls is read as motor impairment.
The next data set relates to TNF-α. The data set is described as follows: Blood TNF-α levels in healthy human volunteers. It counts as in vivo. How it is done: (§2) A hard gelatine capsule was filled with the following composition:
(§3) One capsule as above containing 0.3 mg tacrolimus was administered daily to healthy human volunteers for three successive days. […] Similarly, no change in TNF-α levels occurred as a result of administering 0.6 mg daily of tacrolimus to healthy volunteers. The average trough level of tacrolimus (level after 24 hours of administration of each dose) observed was approximately 220 pg/mL.

Data set [3] in a line: Tacrolimus blood levels in healthy human volunteers after capsule. The format is in vivo. The protocol:
as §2, §3

The conditions of data set [4]: in vivo, 2 mg/kg/day. How it is done: Based on pharmacokinetic analysis, a tacrolimus dose of 2 mg/kg/day in the mouse is believed to correspond to a human oral dose of about 0.33-0.44 mg/day oral for a 70 kg person.

The values below come from patent US20190015395A1, “TACROLIMUS FOR TREATING TDP-43 PROTEINOPATHY” (CHRONOS THERAPEUTICS LIMITED, priority 2016, published 2019).

Turning to `C=CC[C@@H]1/C=C(\C)C[C@H](C)C[C@H](OC)[C@H]2O[C@@](O)(C(=O)C(=O)N3CCCC[C@H]3C(=O)O[C@H](/C(C)=C/[C@@H]3CC[C@@H](O)[C@H](OC)C3)[C@H](C)[C@@H](O)CC1=O)[C@H](C)C[C@@H]2OC` [tacrolimus], the “lifespan (survival) of worms expressing the TDP-43 C-terminal fragment” value was “partially rescuing the lifespan deficit” in data set [1] and “significant increase in lifespan” in data set [1] (listed as Tacrolimus). Further, the “lifespan (survival) of control GFP-expressing worms” value in data set [2] is “increasing the lifespan”; in data set [2] (listed as Tacrolimus), “significant increase in lifespan”. Further, the “rotarod latency / decline in motor function” value with TDP-43(Q331K) mice (0.25 mg/kg per day p.o., 60 weeks from 3 weeks of age, vs vehicle) was “delays the progression of motor decline”; in the data set on TDP-43(Q331K) mice (0.25 mg/kg per day p.o., 60 weeks from 3 weeks of age, vs vehicle, listed as Tacrolimus), “delays the progression of the decline in rotarod performance”; in the data set with TDP-43(Q331K) mice (1.25 mg/kg per day p.o., 60 weeks from 3 weeks of age, vs vehicle), “delays the progression of motor decline”; in the data set with TDP-43(Q331K) mice (1.25 mg/kg per day p.o., 60 weeks from 3 weeks of age, vs vehicle, listed as Tacrolimus), “delays the progression of the decline in rotarod performance”; with TDP-43(Q331K) mice (2.5 mg/kg per day p.o., 60 weeks from 3 weeks of age, vs vehicle), “delays the progression of motor decline”; in the data set with TDP-43(Q331K) mice (2.5 mg/kg per day p.o., 60 weeks from 3 weeks of age, vs vehicle, listed as Tacrolimus) it was “delays the progression of the decline in rotarod performance”. In addition, in the data set with TNF-α (0.3 mg capsule daily for three successive days), the “change in blood TNF-α levels” value is “No significant changes”. Moreover, the “change in TNF-α levels” value with TNF-α (0.6 mg daily) was “no change”. Further, in data set [3] (0.3 mg capsule daily for three days, healthy volunteers), the average peak level entry is “approximately 3700 pg/mL”. Moreover, the expected trough level result in data set [3] (two capsules simultaneously, single dose of 0.6 mg) is “about 440 pg/mL”. For the same compound, the “human oral dose corresponding to the mouse dose” value in data set [4] is 0.33 to 0.44 mg/day.

Turning to `Nc1nc2ccc(OC(F)(F)F)cc2s1` [riluzole], the “rotarod latency / decline in motor function” value in the data set on TDP-43(Q331K) mice (10 mg/kg p.o. per day in water, up to 60 weeks, vs water-treated control) is on record as “delays the progression of the decline in rotarod performance”.
